Results on 3 compounds are retold here after PMC4591660 (Toxins, 2015).

“Also recorded” adds a separate entry of the source. Like-named read-outs stand apart in the source and are kept apart here.

The target in one assay is T1, mTRPV1 (Mus musculus, UniProt Q704Y3).
T1 construct: expressed in transfected cells; host or cells: HEK293T
Type of assay: cell-based. As to the method: (§1) Thus, electrophysiological tests on transient transfected TRPV1 were performed. […] To our knowledge, HEK293T cells have been reported to endogenously express acid-sensing ion channels (ASICs).
(§2) All patch clamp recordings were carried out at temperature 20 °C using an EPC-10 amplifier (HEKA Electronik, Lambrecht, Germany) according to the previous report. Recording pipettes were made from borosilicate glass capillary tubing, and their resistances were 3–5 MΩ when filled with internal solution. For mKv1.1 and mKv1.3 current recordings, the cells were held at −80 mV for 5 min after the whole-cell construction was established. All of the potassium current traces were elicited by a 300-ms depolarizing potential of 0 mV from a holding potential of −80 mV. The standard pipette solution contained (in mM): 140 KF, 4 MgCl2, 5 ATP-Na, 1 EGTA, and 10 HEPES, pH 7.3. The standard bath solution contained (in mM): 137 NaCl, 5.9 KCl, 2.2 CaCl2, 1.2 MgCl2, 14 glucose, and 10 HEPES, pH 7.3. For mice TRPV1 channel recordings, the pipette and bathing solution contained (in mM): 130 NaCl, 0.2 EDTA, and 3 HEPES, pH 7.2.
(§3) Experimental data of electrophysiological recordings were acquired and analyzed by using the Pulse program and Igor Pro. The data obtained in experiments involving animals were analyzed by GraphPad Prism 5 (GraphPad Software, Inc., San Diego, CA, USA). All of the data points are shown as the means ± S.E. n is presented as the number of experiments. Statistical analysis was carried out by Student’s t test, and * indicated a significant difference (p < 0.01).

The next assay deals with native HEK293T cells. It is filed as cell-based. The settings on record: negative for TRPV1, 20 °C, endogenous ASICs. As for the experimental part:
as §1, §2, §3

In the next assay the test system is TRPV1. The settings on record: cited from earlier work.
Assay [1] concerns DRG neurons of TRPV1 KO mice. It is filed as cell-based, mouse. As to the method:
(§4) DRG neurons from WT or TRPV1 KO mice were acutely dissociated and maintained in short-term primary culture as previously described. DRGs were incubated in 5% CO2/95% air at 37 °C for 1–4 h prior to patch-clamp experiments. HEK293T cells were used for mKv1.1 or mKv1.3 expression. Cells were grown under standard tissue culture conditions (5% CO2, 37 °C) in DMEM supplemented with 10% fetal bovine serum. Cells were transfected with DNA mixture (channel constructs and a green fluorescent protein (GFP) reporter plasmid) using lipofectamine 2000 transfection reagent (Invitrogen, Carlsbad, CA, USA) following the manufacturer’s instructions and used for electrophysiology 24–48 h after transfection. Cells with GFP fluorescence were selected for patch-clamp recordings […] after transfection.
as §2
(§5) Experimental data of electrophysiological recordings were acquired and analyzed by using the Pulse program and Igor Pro. The data obtained in experiments involving animals were analyzed by GraphPad Prism 5 (GraphPad Software, Inc., San Diego, CA, USA). All of the data points are shown as the means ± S.E. n is presented as the number of experiments. […]

For the next assay, the system named is DRG neurons of WT mice. Type of assay: cell-based, mouse. The settings on record: 10 µM; DRG neurons 20 µm ≤ cell ≤ 35 µm; 20 °C. As for the experimental part:
as §4, §2, §5

In a further assay the test system is WT mice. It is filed as in vivo, C57BL/6J. The settings on record: 10 μL intraplantar, left hind paw, 30 min recording, n = 10; for pain behavior (duration of paw licking/biting): 500 µM, vs saline; for pain behavior (paw licking), dose-response: different doses. As to the method:
(§6) Mice, C57BL/6J, were used as wild type (WT) in these experiments. TRPV1-KO mice were purchased from Model Animal Research Center of Nanjing University, China. All the experiments using animals were carried out in accordance with recommendations in the Guide for the Care and Use of Laboratory Animals of Kunming Institute of Zoology, Chinese Academy of Sciences. Experimental protocols using animals in this work were approved by the Institutional Animal Care and Use Committees at Kunming Institute of Zoology, Chinese Academy of Sciences (2014-204). All efforts were made to reduce the number of animals used and to minimize the suffering of animals.
(§7) Control mice were injected with the same volume of saline. Immediately after injection, the time of paw licking was recorded by digital video camera for 30 min.
as §3

In the next assay the test system is Kv1.1. Also on record: method as in PMID 11173083, PMID 10565809. The settings on record: ref [37],[38]; cited from earlier work.
For another assay, the system named is TRPV1 KO mice. Type of assay: in vivo. The settings on record: 500 µM, 10 μL intraplantar, left hind paw; 30 min recording; n = 10; vs saline. As for the experimental part: as §6, §7, §3
Another assay deals with Kv1.3. Also on record: method as in PMID 11173083, PMID 10565809. The settings on record: ref [37],[38]; cited from earlier work.

T1 sequence (Q704Y3 whole entry): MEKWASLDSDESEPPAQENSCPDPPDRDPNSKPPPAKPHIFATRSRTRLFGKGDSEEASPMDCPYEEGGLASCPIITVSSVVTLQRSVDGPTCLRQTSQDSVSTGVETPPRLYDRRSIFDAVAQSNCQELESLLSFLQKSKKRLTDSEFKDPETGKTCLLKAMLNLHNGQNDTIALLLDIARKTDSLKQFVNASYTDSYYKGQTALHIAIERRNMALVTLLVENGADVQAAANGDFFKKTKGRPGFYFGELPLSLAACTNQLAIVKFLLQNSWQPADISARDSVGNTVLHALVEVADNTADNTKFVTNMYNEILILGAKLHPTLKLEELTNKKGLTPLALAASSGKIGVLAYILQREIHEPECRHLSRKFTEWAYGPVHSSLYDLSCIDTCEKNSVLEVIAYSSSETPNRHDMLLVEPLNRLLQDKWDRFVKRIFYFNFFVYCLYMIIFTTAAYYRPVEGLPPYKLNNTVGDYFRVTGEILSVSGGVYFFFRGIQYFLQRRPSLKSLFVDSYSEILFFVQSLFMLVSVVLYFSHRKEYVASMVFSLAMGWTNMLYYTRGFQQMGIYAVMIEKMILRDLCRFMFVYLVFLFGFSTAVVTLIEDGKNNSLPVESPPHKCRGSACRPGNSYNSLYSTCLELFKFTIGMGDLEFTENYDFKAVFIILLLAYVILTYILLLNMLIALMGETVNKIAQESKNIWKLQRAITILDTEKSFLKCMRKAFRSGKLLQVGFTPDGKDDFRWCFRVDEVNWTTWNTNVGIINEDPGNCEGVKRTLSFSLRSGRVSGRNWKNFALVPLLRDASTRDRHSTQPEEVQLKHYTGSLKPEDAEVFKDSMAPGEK

Regarding `NCCOB(c1ccccc1)c1ccccc1` [2APB], the “activation of TRPV1 (comparator agonists)” value at mTRPV1 (HEK293T expressing mTRPV1, concentration not given, 20 °C) is given as “potently activated TRPV1”.

Turning to `COc1cc(CNC(=O)CCCC/C=C/C(C)C)ccc1O` [capsaicin], the “evoked currents in native HEK293T cells, ramp method” value in the assay on native HEK293T cells is on record as “did not evoke the currents”. Also, on mTRPV1, the “activation of TRPV1 (comparator agonists)” value was “potently activated TRPV1” and the “evoked currents in TRPV1-expressed HEK293T cells, ramp method” value is “evoked the currents in HEK293T cells with over-expressed TRPV1 channels”. Further, the “agonism on TRPV1” value in the assay with TRPV1 is “well-known agonist of TRPV1”. The “normalized evoked currents, TRPV1 KO compared with WT DRG neurons” value in assay [1] was “significantly higher in WT than TRPV1 KO mice; also recorded: significantly lower in TRPV1 KO mice than in WT mice”. For the same compound, the “evoked currents on DRG neurons (TRPV1 KO)” value in [1] (10 µM, DRG neurons 20 µm ≤ cell ≤ 35 µm, 20 °C) is “not TRPV1 KO mice; also recorded: did not evoke currents”. For the same compound, the “evoked currents on DRG neurons (WT)” value in the assay on DRG neurons of WT mice is recorded as “effectively evoked the currents in DRG neurons of WT; also recorded: evoked the currents on DRG sensory neurons of WT mice”. In addition, in the assay on WT mice, the “pain behavior (duration of paw licking/biting)” value was “induced pain in WT mice” and the “pain behavior (paw licking), dose-response” value is on record as “induced acute pain in a dose dependent manner”.

Consider kaliotoxin, for which the “inhibition of Kv1.1” value in the assay on Kv1.1 is “potent inhibitor of Kv1.1 and Kv1.3”. The “pain behavior (duration of paw licking/biting)” value is on record as “unable to induce pain” in the assay with WT mice and “only crude venom induced pain” with TRPV1 KO mice. Further, the “pain behavior (paw licking), dose-response” value in the assay on WT mice is reported as “did not induce pain”; in the assay on WT mice (listed as Kaliotoxin), “showed no significant pain behavior”. The “inhibition of Kv1.3” value in the assay with Kv1.3 was “potent inhibitor of Kv1.1 and Kv1.3”.
